{
  "source": "patent US20130040291A1",
  "about": "“Detection and Quantification of Cellular Stress Response Resolution Pathway Expression and Functionality and the Effects of Agents or Conditions Thereupon” (priority 2011, published 2013)",
  "test_system": "CDNR4 cells",
  "assay": "Midway cloning efficiency (mCE), pre-calibrated stress conditions pro-survival pathway function",
  "assay_type": "cell-based, murine",
  "conditions": "ENU 20 micrograms/ml 1 hour, 2 weeks (day 14) post-exposure",
  "text": "mCE procedure #2 for cells that grow attached to a surface or basement membrane and/or that have the following growth characteristics when grown in tissue culture. The second method is novel and is recommended for use with epithelial cells, cells that form tight junctions, cells that produce mucinous material during in vitro cell culture, and/or cells that attach to a basement membrane. The latter characteristics are typical of epithelial cells but are not unique to this cell type alone.\nThis procedure is used to obtain an accurate cell count in vials of very dilute cells that are used for plating cloning efficiency plates. […]\nFor this procedure, the cell aliquot that was set aside during the initial cell counting is divided into 2 equal groups and diluted as follows. […] Approximately 12 to 15 hours later, the average number of cells per milliliter on the 6 or 12 well plates for both groups A and B is determined using light microscopy to visualize and count the cells. […] Viable cells are counted; dead cells or cell fragments are not counted. […] The final cloning efficiency is determined using the formula presented above (see phase 3 step 5). […]",
  "data": [
    {"compound": "CCN(N=O)C(N)=O", "note": "[ENU, ethylnitrosourea]", "values": [
      {"measurement": "mCE (midway cloning efficiency)", "value": 34.2, "unit": "%"}
    ]}
  ]
}
